The values below come from patent publication US20240400547A1, “2,6-PIPERIDINEDIONE COMPOUND AND APPLICATION THEREOF” (MEDSHINE DISCOVERY INC., priority 2021, published 2024).

Series [1] is described as follows: Pharmacokinetic evaluation in beagles. Conditions: beagles (fed). In kind it is in vivo, beagle. The text has this: In this study, male beagles were selected as test animals, and LC/MS/MS method was used to quantify plasma concentrations of the test compound intravenously injected or intragastrically administered to beagles at different time points, so as to evaluate the pharmacokinetic profile of the compounds of the present disclosure in beagles.
Beagle (male, 7 to 10 kg, Beijing Marshall Biotechnology Co., Ltd.).
• A clear solution of the test compound was slowly injected into beagle via the peripheral vein (fed) (vehicle: […]/10% solutol/85% H2O or 5% DMSO/10% solutol/85% H2O), or intragastrically administered to beagles (fed). For intravenous injection, 0.5 mL blood was collected via the saphenous vein puncture at 0.083, 0.25, 0.5, 1, 2, 4, 6, 8, and 24 h after administration, and placed in a EDTA-2K anticoagulant tube. The mixture was centrifuged at 3200 g for 10 minutes at 2 to 8° C., and the supernatant was separated. For oral administration, 0.5 mL blood was collected via the saphenous vein puncture at 0.083, 0.25, 0.5, 1, 2, 4, 6, 8, and 24 h after administration, and placed in a EDTA-2K anticoagulant tube. The mixture was centrifuged at 3200 g for 10 minutes at 2 to 8° C., and the supernatant was separated. Plasma drug concentrations were determined by LC-MS/MS method, and relevant pharmacokinetic parameters were calculated using Phoenix WinNonlin 6.3 pharmacokinetic software with non-compartmental model linear-log trapezoidal method.

Series [2] has as its system human lymphoma SU-DHL-2 cells. Kind of series: In vivo efficacy in CB17 SCID mouse model with subcutaneous xenograft tumors of human lymphoma SU-DHL-2 cells. The settings on record: for Tumor volume (Day 0): Day 0 (grouping, baseline); for Tumor volume (Day 0) / Tumor volume (Day 21): average, SEM in next grid line. The arrangement: species or system CB17 SCID mice. The method, then: The study evaluates the antitumor effect of the test compounds using a CB17 SCID mouse model with subcutaneous xenograft tumors of SU-DHL-2 human lymphoma cells.
• 1. Experimental animals: CB17 SCID mice, female, 6 to 8 weeks old, weighing 18 to 22 g. Beijing Vital River Laboratory Animal Technology Co., Ltd. • 2. Cell line: human lymphoma SU-DHL-2 cells (Cat. No ATCC-CRL-2956).
Cell culture: Human lymphoma SU-DHL-2 cells (ATCC-CRL-2956) were cultured in suspension in vitro. The culture conditions were RPMI 1640 medium with […] fetal bovine serum, 100 U/mL penicillin and 100 μg/mL streptomycin, and cultured in a 37° C., […] incubator. Routine passaging was performed twice a week. When the cell saturation reached […] and the quantity met the requirements, the cells were collected, counted, and seeded.
Tumor cell seeding and grouping: 0.2 mL (10×10^6 cells) of SU-DHL-2 cells, in a PBS:Matrigel=1:1 mixture, were subcutaneously inoculated into the right dorsal flank of each mouse. When the average tumor volume reached approximately 139 mm^3, the animals were divided into groups for drug administration. The day of grouping was recorded as Day 0, and dosing began according to the body weight of the animals.
The pharmacological experiment consisted of a dosing cycle of seven days, with medication administered once daily at a 24-hour interval. The test compounds were given intragastrically, with a total of three dosing cycles. During the experiment, the body weight and tumor size of the animals were measured twice a week, and clinical symptoms were observed and recorded daily.
The dosing for the test compounds were 10 mg/kg, 30 mg/kg, and 100 mg/kg, with a solvent composition of 10% DMSO/10% Solutol/80% water. The formula for calculating tumor volume (TV) was: 1/2×a×b^2, where a and b were the measured length and width of the tumor, respectively. The formula for calculating the Tumor Growth Inhibition (TGI) rate was: TGI (%)=[(1−(average tumor volume at the end of administration in a treatment group average tumor volume at the beginning of administration in this treatment group))/(average tumor volume at the end of treatment in the vehicle control group−average tumor volume at the beginning of treatment in the vehicle control group)]×100%. Relative Tumor Proliferation rate T/C (%): the calculation formula was as follows: T/C %=TRTV/CRTV×100% (TRTV: average RTV of the treatment group; CRTV: average RTV of the negative control group). According to the results of tumor measurement, the relative tumor volume (RTV) was calculated, and the calculation formula was RTV=Vt/V0, where V0 was the tumor volume measured at the time of group administration (i.e. Day 0), VT was the tumor volume at a certain measurement, and TRTV and CRTV were taken from the same day's data.
Statistical analysis is based on the data of RTV at the end of the experiment and analyzed by SPSS software. For comparisons between two groups, a T test was used. For comparisons among three or more groups, one-way ANOVA was utilized. If the variance was homogenous (no significant difference in F value), Tukey's method was applied for analysis. If the variance was heterogeneous (significant difference in F value), the Games-Howell method was used for testing. A p-value of <0.05 was considered statistically significant.
For orientation: A xenograft is tissue or cells of one species grown in another, often human tumour cells in immunodeficient mice.

[3] abbreviates: intragastric administration 5 mg/kg.
[4] abbreviates: 10 mg/kg intragastric once daily.
The mark [5] stands for this setting: 30 mg/kg intragastric once daily.
Where [6] appears, read: 100 mg/kg intragastric once daily.

The structures appear in SMILES notation. Structures can show the parent of a compound that is named as a salt.

In the case of `O=C1CCC(c2noc3ccc4c(NC(=O)CN5CCN(C[C@H]6CC[C@H](n7cc(NC(=O)c8coc(-c9ccnc(NCC%10CC%10)c9)n8)c(C(F)F)n7)CC6)CC5)cccc4c23)C(=O)N1` (some centres unmarked) [Hydrochloride of WX014], in series [1] (setting [3]), the “Area under drug-time curve (0-inf)” value is 3.20 µM·h, the Peak concentration was found to be 0.41 µM and the “Time to peak concentration” value is on record as 4.00 h. The “Area under drug-time curve (0-inf)” value in series [1] (intravenous injection 0.5 mg/kg) was determined as 0.44 µM·h. In series [1] (male, beagle, dog, plasma, intravenous injection 0.5 mg/kg, read-out: Apparent volume of distribution), the Vd is 5.83 L/kg. Besides, in series [2] (setting [4]), the “Tumor volume (Day 0)” value is listed as 139 mm^3, the “T/C (%) (Day 21)” value stood at 42.33%, the “TGI (%) (Day 21)” value turned out to be 62.13% and the “Tumor volume (Day 21)” value is 800 mm^3. Besides, in series [2] (setting [5]), the “Tumor volume (Day 0)” value is on record as 139 mm^3, the “T/C (%) (Day 21)” value was 42.26%, the “TGI (%) (Day 21)” value was found to be 61.41% and the “Tumor volume (Day 21)” value was found to be 813 mm^3. Besides, in series [2] (setting [6]), the “Tumor volume (Day 0)” value was determined as 139 mm^3, the “T/C (%) (Day 21)” value is on record as 33.23%, the “TGI (%) (Day 21)” value is 72.07% and the “Tumor volume (Day 21)” value amounted to 626 mm^3.
